Data: article PMC7587356, “High-Throughput Screening for Inhibitors of the SARS-CoV-2 Protease Using a FRET-Biosensor” (Molecules, 2020)
Counter-ions that a name gives are not always drawn. Like-named read-outs stand apart in the source and are kept apart here. Peptide text beside a SMILES is read from it. * marks the point of attachment. Cbz = O=C(OCc1ccccc1)*

Target: SARS-CoV-2 3CLpro (Severe acute respiratory syndrome coronavirus 2, UniProt P0DTD1)
Test: biochemical
Format: biochemical
Set-up: Replicate_1 / Replicate_2 / mean / mean (LOPAC_screen_w_protease): unit not given here
Conditions: for inhibition at 5 µM: 4 h
[1] = sheet LOPAC_screen_w_protease, primary screen of LOPAC1280 at 5 µM with protease, mean of the two replicates
[2] = sheet LOPAC_screen_w_protease, primary screen of LOPAC1280 at 5 µM with protease, replicate 1
[3] = sheet LOPAC_screen_w_protease, primary screen of LOPAC1280 at 5 µM with protease, replicate 2
[4] = sheet LOPAC_screen_w_protease, primary screen at 5 µM, mean of two replicates
[5] = sheet LOPAC_screen_w_protease, primary screen at 5 µM, replicate 1
[6] = sheet LOPAC_screen_w_protease, primary screen at 5 µM, replicate 2
[7] = sheet LOPAC_screen_w_protease, primary screen with protease, 5 µM, mean of two replicates, read-out: mean
[8] = sheet LOPAC_screen_w_protease, primary screen with protease, 5 µM, replicate 1, read-out: Replicate_1
[9] = sheet LOPAC_screen_w_protease, primary screen with protease, 5 µM, replicate 2, read-out: Replicate_2
[10] = sheet LOPAC_screen_w_protease, primary screen with protease, mean of two replicates
[11] = sheet LOPAC_screen_w_protease, primary screen with protease, replicate 1
[12] = sheet LOPAC_screen_w_protease, primary screen with protease, replicate 2
[13] = LOPAC1280 primary screen with protease, 5 µM compound, replicate 1, read-out: Replicate_1 (LOPAC_screen_w_protease)
[14] = LOPAC1280 primary screen with protease, 5 µM compound, replicate 2, read-out: Replicate_2 (LOPAC_screen_w_protease)
[15] = LOPAC1280 primary screen with protease, 5 µM compound, mean of two replicates
[16] = sheet LOPAC_screen_w_protease, primary screen with protease, 5 µM, mean of two replicates
[17] = sheet LOPAC_screen_w_protease, primary screen with protease, 5 µM, replicate 1
[18] = sheet LOPAC_screen_w_protease, primary screen with protease, 5 µM, replicate 2
[19] = sheet LOPAC_screen_w_protease, LOPAC1280 at 5 µM, mean of two replicates
[20] = sheet LOPAC_screen_w_protease, LOPAC1280 at 5 µM, replicate 1
[21] = sheet LOPAC_screen_w_protease, LOPAC1280 at 5 µM, replicate 2
[22] = LOPAC1280 primary screen with protease, 5 µM compound, replicate 1
[23] = LOPAC1280 primary screen with protease, 5 µM compound, replicate 2
[24] = sheet LOPAC_screen_w_protease, primary screen with protease, compound at 5 µM, mean of two replicates
[25] = sheet LOPAC_screen_w_protease, primary screen with protease, compound at 5 µM, replicate 1
[26] = sheet LOPAC_screen_w_protease, primary screen with protease, compound at 5 µM, replicate 2
[27] = sheet LOPAC_screen_w_protease, LOPAC1280 primary screen at 5 µM, with protease, mean of the two replicates
[28] = sheet LOPAC_screen_w_protease, LOPAC1280 primary screen at 5 µM, with protease, replicate 1
[29] = sheet LOPAC_screen_w_protease, LOPAC1280 primary screen at 5 µM, with protease, replicate 2

Compound: COC(=O)[C@@H](N)Cc1ccc(O)c(O)c1.Cl
- mean [1]: 3.737
- Replicate_1 [2]: 4.528
- Replicate_2 [3]: 2.946

Compound: CCCn1c(=O)c2[nH]c(-c3ccc(S(=O)(=O)O)cc3)nc2n(CCC)c1=O [1,3-Dipropyl-8-p-sulfophenylxanthine]
- mean (LOPAC screen with protease) [4]: 7.8949
- Replicate_1 (LOPAC screen with protease) [5]: 7.582
- Replicate_2 (LOPAC screen with protease) [6]: 8.208

Compound: O=C(O)c1cc2cc(F)ccc2[nH]1 [5-Fluoroindole-2-carboxylic acid]
- inhibition at 5 µM [7]: -0.381%
- inhibition at 5 µM [8]: 0.54%
- inhibition at 5 µM [9]: -1.3%

Compound: O=C(O)/C=C/C(=O)O.O=C(O)/C=C/C(=O)O.O=C(O)/C=C/C(=O)O.O=C1CCCN1CC#CCN1CCCC1.O=C1CCCN1CC#CCN1CCCC1 [Oxotremorine sesquifumarate salt]
- mean (sheet LOPAC_screen_w_protease, LOPAC1280 primary screen with protease, 5 µM compound, mean of the two replicates): 4.476
- Replicate_1 (sheet LOPAC_screen_w_protease, LOPAC1280 primary screen with protease, 5 µM compound, replicate 1): 3.394
- Replicate_2 (sheet LOPAC_screen_w_protease, LOPAC1280 primary screen with protease, 5 µM compound, replicate 2): 5.5586

Compound: N=C(N)c1ccccc1 [Benzamidine hydrochloride]
- inhibition at 5 µM (sheet LOPAC_screen_w_protease, primary screen with protease, mean of two replicates, read-out: mean): 2.38%
- inhibition at 5 µM (sheet LOPAC_screen_w_protease, primary screen with protease, replicate 1, read-out: Replicate_1): 1.49%
- inhibition at 5 µM (sheet LOPAC_screen_w_protease, primary screen with protease, replicate 2, read-out: Replicate_2): 3.28%

Compound: CCCN(CCC)C(=O)Cc1c(-c2ccc(Cl)cc2)nc2c(Cl)cc(Cl)cn12 [CB34]
- Replicate_1: 2.062
- Replicate_2: 2.367
- mean: 2.2145

Compound: C[N+](C)(C)CCOC(=O)CBr.[Br-] [Bromoacetylcholine bromide]
- mean [10]: 2.401
- Replicate_1 [11]: 0.6425
- Replicate_2 [12]: 4.16

Compound: Cc1cc(C)c(NC(=O)C[C@H](CC(=O)O)c2cccc3ccccc23)c(C(=O)N2CCC3(CCCC3)CC2)c1 [CR 2945]
- inhibition at 5 µM [13]: 3.19%
- inhibition at 5 µM [14]: 0.22%
- mean (LOPAC_screen_w_protease) [15]: 1.703

Compound: Cn1cnc2c(NCc3ccccc3)nc(NCCO)nc21 [Olomoucine]
- inhibition at 5 µM (sheet LOPAC_screen_w_protease, LOPAC1280 primary screen with protease, 5 µM compound, mean of the two replicates, read-out: mean): 4.92%
- inhibition at 5 µM (sheet LOPAC_screen_w_protease, LOPAC1280 primary screen with protease, 5 µM compound, replicate 1, read-out: Replicate_1): 3.02%
- inhibition at 5 µM (sheet LOPAC_screen_w_protease, LOPAC1280 primary screen with protease, 5 µM compound, replicate 2, read-out: Replicate_2): 6.83%

Compound: COc1cc(CC(=O)O)ccc1O [4-Hydroxy-3-methoxyphenylacetic acid]
- mean [16]: 0.06748
- Replicate_1 [17]: 3.737
- Replicate_2 [18]: -3.602

Compound: O=C(O)CCC(C(=O)O)N1C(=O)c2ccccc2C1=O [L-Glutamic acid, N-phthaloyl-]
- mean [19]: 1.263
- Replicate_1 [20]: 1.846
- Replicate_2 [21]: 0.6803

Compound: CCC(=O)N1CCN(C(=O)c2ccccc2)CC1 [DM 235]
- mean (LOPAC_screen_w_protease) [15]: 1.365
- Replicate_1 (LOPAC_screen_w_protease) [22]: 0.6823
- Replicate_2 (LOPAC_screen_w_protease) [23]: 2.048

Compound: N[C@H](CCCCCP(=O)(O)O)C(=O)O [D(-)-2-Amino-7-phosphonoheptanoic acid]
- mean [24]: 3.051
- Replicate_1 [25]: 3.469
- Replicate_2 [26]: 2.633

Compound: CCCC(C(=O)OCCN(CC)CC)(c1ccccc1)c1ccccc1.Cl [SKF-525A hydrochloride]
- mean [1]: 3.89
- Replicate_1 [2]: 3.162
- Replicate_2 [3]: 4.618

Compound: Cl.Fc1ccc(CN(C2=NCCN2)c2c(Cl)cccc2Cl)cc1 [IMID-4F hydrochloride]
- mean [16]: -0.6347
- Replicate_1 [17]: -0.8698
- Replicate_2 [18]: -0.3997

Compound: CC(Oc1ccc(Oc2cnc3ccc(Cl)cc3n2)cc1)C(=O)O (centres unmarked) [XK469]
- mean [19]: 1.32
- Replicate_1 [20]: 0.4248
- Replicate_2 [21]: 2.215

Compound: CCCCCC(O)c1cccc(OCc2ccc3ccccc3n2)c1 (centres unmarked) [REV 5901]
- inhibition at 5 µM [7]: 0.337%
- inhibition at 5 µM [8]: 0.269%
- inhibition at 5 µM [9]: 0.406%

Compound: Cl.NCC#Cc1ccccc1 [3-Phenylpropargylamine hydrochloride]
- mean [27]: 0.744
- Replicate_1 [28]: 1.313
- Replicate_2 [29]: 0.1753

Compound: CCCCCC(O)CCCC(=O)O.[Na] (centres unmarked) [5-hydroxydecanoic acid sodium]
- mean [16]: 0.3617
- Replicate_1 [17]: 2.03
- Replicate_2 [18]: -1.306

Compound: O=c1[nH]c(=O)n([C@H]2C[C@H](O)[C@@H](CO)O2)cc1Br [5-Bromo-2'-deoxyuridine]
- inhibition at 5 µM [13]: 1.74%
- inhibition at 5 µM [14]: 1.06%
- mean (LOPAC_screen_w_protease) [15]: 1.398

Compound: Cc1cccc(C)c1N=C1NCCCS1 [Xylazine hydrochloride]
- inhibition at 5 µM (read-out: Replicate_1): 0.366%
- inhibition at 5 µM (read-out: Replicate_2): 2.25%
- inhibition at 5 µM (read-out: mean): 1.31%

Compound: CC(Cc1ccc(O)c(O)c1)C(C)Cc1ccc(O)c(O)c1 (centres unmarked)
- mean (LOPAC screen with protease) [4]: 97.9088
- Replicate_1 (LOPAC screen with protease) [5]: 97.7665
- Replicate_2 (LOPAC screen with protease) [6]: 98.0511

Compound: CC(C)[C@H](NC(=O)OCc1ccccc1)C(=O)N[C@H](C=O)Cc1ccccc1 [MDL 28170] (Cbz-Val-Phe-aldehyde)
- inhibition at 5 µM (read-out: Replicate_1 (LOPAC_screen_w_protease)): 0.281%
- inhibition at 5 µM (read-out: Replicate_2 (LOPAC_screen_w_protease)): 3.52%

Compound: COC(=O)C1=C(C)NC(C)=C(C(=O)OCCN(C)Cc2ccccc2)C1c1cccc([N+](=O)[O-])c1 (centres unmarked) [Nicardipine hydrochloride]
- inhibition at 5 µM (sheet LOPAC_screen_w_protease, primary screen with protease, compound at 5 µM, mean of two replicates, read-out: mean): 2.73%
- inhibition at 5 µM (sheet LOPAC_screen_w_protease, primary screen with protease, compound at 5 µM, replicate 1, read-out: Replicate_1): 2.03%
- inhibition at 5 µM (sheet LOPAC_screen_w_protease, primary screen with protease, compound at 5 µM, replicate 2, read-out: Replicate_2): 3.42%

Compound: Cl.c1ccc(CN2CCC3(CCCc4ccccc43)CC2)cc1 [L-687,384 hydrochloride]
- mean [27]: 0.6815
- Replicate_1 [28]: 0.6204
- Replicate_2 [29]: 0.7425

Compound: [Cl-].[Li+] [Lithium Chloride]
- mean [27]: 0.7152
- Replicate_1 [28]: 0.8231
- Replicate_2 [29]: 0.6073

Compound: CCCCCCCCCCCCCCC[C@H](O)[C@H](N)CO (racemic) [DL-erythro-Dihydrosphingosine]
- mean (LOPAC_screen_w_protease) [15]: 1.428
- Replicate_1 (LOPAC_screen_w_protease) [22]: 4.536
- Replicate_2 (LOPAC_screen_w_protease) [23]: -1.681

Compound: CN1CCN(c2nc3cc(C(F)(F)F)ccc3n3cccc23)CC1.O=C(O)/C=C\C(=O)O [CGS-12066A maleate]
- mean [27]: 0.5818
- Replicate_1 [28]: 1.428
- Replicate_2 [29]: -0.2648

Compound: CCCn1c(=O)[nH]c(=O)c2nc[nH]c21 [3-n-Propylxanthine]
- mean [10]: 2.529
- Replicate_1 [11]: 1.492
- Replicate_2 [12]: 3.5659

Compound: CS(=O)(=O)O.Cc1c(C(=O)c2cccc3ccccc23)c2cccc3c2n1[C@H](CN1CCOCC1)CO3 [(R)-(+)-WIN 55,212-2 mesylate]
- mean [16]: -0.1611
- Replicate_1 [17]: -0.3938
- Replicate_2 [18]: 0.07161

Compound: CC(C(=O)O)c1ccc(CC2CCCC2=O)cc1 (centres unmarked) [loxoprofen]
- inhibition at 5 µM (sheet LOPAC_screen_w_protease, LOPAC1280 at 5 µM, mean of two replicates, read-out: mean): 1.2%
- inhibition at 5 µM (sheet LOPAC_screen_w_protease, LOPAC1280 at 5 µM, replicate 1, read-out: Replicate_1): 0.313%
- inhibition at 5 µM (sheet LOPAC_screen_w_protease, LOPAC1280 at 5 µM, replicate 2, read-out: Replicate_2): 2.09%

Compound: L-Methionine sulfoximine
- Replicate_1 (LOPAC_screen_w_protease): 2.433
- Replicate_2 (LOPAC_screen_w_protease): 0.2989
- mean (LOPAC_screen_w_protease): 1.366

Compound: NC(CP(=O)(O)O)C(=O)O (racemic) [(±)-2-Amino-3-phosphonopropionic acid]
- mean [24]: 3.099
- Replicate_1 [25]: 4.251
- Replicate_2 [26]: 1.946

Compound: COC(=O)C1=C(C)NC(C)=C(C(=O)OC)C1c1ccccc1[N+](=O)[O-] [Nifedipine]
- inhibition at 5 µM (sheet LOPAC_screen_w_protease, primary screen at 5 µM, mean of two replicates, read-out: mean (LOPAC screen with protease)): 14.6%
- inhibition at 5 µM (sheet LOPAC_screen_w_protease, primary screen at 5 µM, replicate 1, read-out: Replicate_1 (LOPAC screen with protease)): 13.8%
- inhibition at 5 µM (sheet LOPAC_screen_w_protease, primary screen at 5 µM, replicate 2, read-out: Replicate_2 (LOPAC screen with protease)): 15.5%

Compound: CCCCC#Cc1nc(N)c2ncn([C@@H]3O[C@H](C(=O)NCC)[C@@H](O)[C@H]3O)c2n1 [HE-NECA]
- mean [16]: 0.2072
- Replicate_1 [17]: 3.132
- Replicate_2 [18]: -2.7179
